Source: the supplement of paper PMC5908809

Assays:
[1] = tested on: normal NK cells expanded with K562-aAPC; test: percent inhibition of viability; higher = more inhibition; details: 72 h, IL-2 2.5 ng/mL
Procedure: (§1)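 Drug sensitivity and resistance testing on K562-aAPC-expanded normal NK cells: 5 concentrations (10-fold steps over a 10,000-fold range), 72 h at 37 °C, viability by CellTiter-Glo normalised to DMSO and benzethonium chloride controls; DSS from the fitted curve.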

[2] = tested on: DERL-7 (IL-2 2.5 ng/mL); test: as above; details: 72 h
[3] = tested on: IMC-1 (IL-2 20 ng/mL); test: as above; details: 72 h
[4] = tested on: KAI3 (IL-2 2.5 ng/mL); test: as above; details: 72 h
[5] = tested on: KHYG-1 (IL-2 2.5 ng/mL); test: as above; details: 72 h
[6] = tested on: NK-92 (IL-2 2.5 ng/mL); test: as above; details: 72 h
[7] = tested on: NK-YS (IL-2 2.5 ng/mL); test: as above; details: 72 h
[8] = tested on: NKL (IL-2 2.5 ng/mL); test: as above; details: 72 h
[9] = tested on: SNK-6 (IL-2 2.5 ng/mL); test: as above; details: 72 h
[10] = tested on: YT (IL-2 2.5 ng/mL); test: as above; details: 72 h
[11] = tested on: normal primary NK cells, pool 1 (3 donors) (IL-2 2.5 ng/mL); test: as above; details: 72 h
[12] = tested on: normal primary NK cells, pool 1 (3 donors), resting (IL-2 0 ng/mL); test: as above; details: 72 h
[13] = tested on: normal primary NK cells, pool 2 (3 donors) (IL-2 2.5 ng/mL); test: as above; details: 72 h
[14] = tested on: normal primary NK cells, pool 3 (3 donors) (IL-2 2.5 ng/mL); test: as above; details: 72 h
[15] = tested on: normal NK cells expanded with K562-aAPC; test: drug sensitivity score (DSS) (DSS units); higher = more sensitive; extreme values may be limits of the assay; details: 72 h; IL-2 2.5 ng/mL
Procedure: as §1

[16] = tested on: DERL-7 (IL-2 2.5 ng/mL); test: as above; details: 72 h
[17] = tested on: IMC-1 (IL-2 20 ng/mL); test: as above; details: 72 h
[18] = tested on: KAI3 (IL-2 2.5 ng/mL); test: as above; details: 72 h
[19] = tested on: KHYG-1 (IL-2 2.5 ng/mL); test: as above; details: 72 h
[20] = tested on: NK-92 (IL-2 2.5 ng/mL); test: as above; details: 72 h
[21] = tested on: NK-YS (IL-2 2.5 ng/mL); test: as above; details: 72 h
[22] = tested on: NKL (IL-2 2.5 ng/mL); test: as above; details: 72 h
[23] = tested on: SNK-6 (IL-2 2.5 ng/mL); test: as above; details: 72 h
[24] = tested on: YT (IL-2 2.5 ng/mL); test: as above; details: 72 h
[25] = tested on: normal primary NK cells, pool 1 (3 donors) (IL-2 2.5 ng/mL); test: as above; details: 72 h
[26] = tested on: normal primary NK cells, pool 1 (3 donors), resting (IL-2 0 ng/mL); test: as above; details: 72 h
[27] = tested on: normal primary NK cells, pool 2 (3 donors) (IL-2 2.5 ng/mL); test: as above; details: 72 h
[28] = tested on: normal primary NK cells, pool 3 (3 donors) (IL-2 2.5 ng/mL); test: as above; details: 72 h

Nc1cc(F)ccc1NC(=O)/C=C/c1cnn(C/C=C/c2ccccc2)c1 [RGFP966] (max concentration tested 10000 nM)
percent inhibition of viability [%]
Details	1 nM	10 nM	100 nM	1000 nM	10000 nM
[1]	4.29	0.23	1.76	9.82	9.19
[2]	-5.83	-2.09	9.7	22.7	77.1
[3]	-2.38	0.66	0.87	7.16	19.2
[4]	3.23	7.54	1.59	11.1	70.5
[5]	-1.2	0.69	1.5	8.74	43.4
[6]	3.38	1.97	18.1	20.7	79.9
[7]	-1.47	0.43	1.84	5.06	33.6
[8]	-2.36	10.4	5.66	29.4	82.3
[9]	6.08	7.31	9.67	21	62.2
[10]	-2.17	-1.29	1.57	1.53	26.1
[11]	-6.12	-12	2.42	-14.4	-7.06
[12]	0.87	-9.67	-2.19	-2.37	16.1
[13]	-11.2	-8.68	8.11	0.44	9.58
[14]	-1.19	-0.09	10.8	-6.25	4.39

Details	drug sensitivity score
[15]	0
[16]	7.16
[17]	1.17
[18]	5.75
[19]	3.64
[20]	6.98
[21]	2.39
[22]	8.18
[23]	5.69
[24]	1.24
[25]	0
[26]	0.22
[27]	0
[28]	0
